Source: ChEMBL document CHEMBL1201862, “PubChem BioAssay data set” (2004)
Calls of active or inactive are those of the source.

Legend:
INS1 = test: beta cell apoptosis inhibitors, cytokine rescue, dose response, luminescence, retest (AID 449756); assay type: functional, cell-based; settings: Rattus norvegicus;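 note: cell death triggered by IL-1 beta plus TNF-alpha plus IFN-gamma mixture; protective hits raise ATP signal compared with cytokine alone wells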
[1] = target: T1, Mannose-6-phosphate isomerase (Homo sapiens, UniProt P34949); test: human PMI inhibitors, high substrate, primary screen, biochemical, fluorescence intensity, high mannose 6-phosphate (AID 1220)
T1 sequence (P34949 whole entry): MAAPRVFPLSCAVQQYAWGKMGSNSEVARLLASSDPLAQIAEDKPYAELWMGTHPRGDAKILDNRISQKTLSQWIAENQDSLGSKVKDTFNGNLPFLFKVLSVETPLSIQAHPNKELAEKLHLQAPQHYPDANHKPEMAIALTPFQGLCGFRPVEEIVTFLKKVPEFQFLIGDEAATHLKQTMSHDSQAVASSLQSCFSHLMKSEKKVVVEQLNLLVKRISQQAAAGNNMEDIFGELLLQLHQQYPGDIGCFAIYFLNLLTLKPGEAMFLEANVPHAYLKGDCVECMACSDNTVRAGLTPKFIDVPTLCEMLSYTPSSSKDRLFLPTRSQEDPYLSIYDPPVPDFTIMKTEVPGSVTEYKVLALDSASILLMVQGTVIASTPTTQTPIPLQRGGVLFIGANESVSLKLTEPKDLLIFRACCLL

Protein RecA = target: T2, Protein RecA (Mycobacterium tuberculosis, UniProt P9WHJ3); test: Fluorescence Cell-Free Homogeneous Dose Retest to Identify Inhibitors of RecA-Intein Splicing Activity. [Related pubchem assays (depositor defined):AID2097, AID2223, AID489010, AID492950]; assay type: functional
T2 sequence (P9WHJ3 whole entry): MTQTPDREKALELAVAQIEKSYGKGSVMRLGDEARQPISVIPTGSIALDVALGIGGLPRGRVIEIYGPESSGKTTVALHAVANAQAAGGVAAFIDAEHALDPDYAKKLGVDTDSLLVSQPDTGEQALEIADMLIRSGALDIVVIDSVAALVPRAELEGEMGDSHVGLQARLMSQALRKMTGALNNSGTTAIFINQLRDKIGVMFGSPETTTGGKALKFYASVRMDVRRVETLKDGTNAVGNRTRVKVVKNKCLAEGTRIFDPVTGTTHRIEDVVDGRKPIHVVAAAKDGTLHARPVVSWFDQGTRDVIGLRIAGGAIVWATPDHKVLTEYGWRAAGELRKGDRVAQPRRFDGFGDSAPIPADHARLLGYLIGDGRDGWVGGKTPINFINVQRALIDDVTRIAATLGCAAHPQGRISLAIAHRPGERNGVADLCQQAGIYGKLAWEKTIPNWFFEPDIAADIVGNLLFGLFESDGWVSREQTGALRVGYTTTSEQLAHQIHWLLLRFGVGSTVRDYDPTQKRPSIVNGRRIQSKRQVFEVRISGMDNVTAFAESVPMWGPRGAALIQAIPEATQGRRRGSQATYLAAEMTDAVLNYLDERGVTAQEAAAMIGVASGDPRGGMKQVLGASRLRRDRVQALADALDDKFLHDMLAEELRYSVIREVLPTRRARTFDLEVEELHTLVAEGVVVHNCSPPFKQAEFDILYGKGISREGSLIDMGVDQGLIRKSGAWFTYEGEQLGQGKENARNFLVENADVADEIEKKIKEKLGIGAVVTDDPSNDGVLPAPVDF

[2] = target: Macrophage-stimulating protein receptor (Homo sapiens, UniProt Q04912); test: Navigating the Kinome. Panel member name: MST1R; assay type: functional
Activated CDC42 kinase 1 = Activated CDC42 kinase 1 (Homo sapiens, UniProt Q07912); test: Navigating the Kinome. Panel member name: ACK1; assay type: functional
[3] = target: Dual specificity tyrosine-phosphorylation-regulated kinase 1A (Homo sapiens, UniProt Q13627); assay type: functional;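 note: measured against DYRK1A as one member of a broad kinome profiling panel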
[4] = target: Dual specificity protein kinase CLK4 (Homo sapiens, UniProt Q9HAZ1); assay type: functional
Sequence of Dual specificity protein kinase CLK4 (Q9HAZ1 whole entry): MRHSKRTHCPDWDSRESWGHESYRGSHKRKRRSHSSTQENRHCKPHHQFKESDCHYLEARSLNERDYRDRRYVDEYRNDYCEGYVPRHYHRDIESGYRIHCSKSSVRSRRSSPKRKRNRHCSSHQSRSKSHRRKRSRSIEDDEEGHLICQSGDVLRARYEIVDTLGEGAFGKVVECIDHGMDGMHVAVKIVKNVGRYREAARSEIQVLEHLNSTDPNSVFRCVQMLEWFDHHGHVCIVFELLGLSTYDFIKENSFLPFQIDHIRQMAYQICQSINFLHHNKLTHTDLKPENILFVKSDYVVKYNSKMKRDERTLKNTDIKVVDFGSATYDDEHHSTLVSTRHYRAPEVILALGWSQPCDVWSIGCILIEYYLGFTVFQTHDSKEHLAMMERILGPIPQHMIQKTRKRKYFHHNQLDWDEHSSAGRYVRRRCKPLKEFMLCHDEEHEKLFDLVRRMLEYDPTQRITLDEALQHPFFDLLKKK

Activin receptor type-1 = Activin receptor type-1 (Homo sapiens, UniProt Q04771); test: Navigating the Kinome. Panel member name: ACVR1; assay type: functional
Sequence of Activin receptor type-1 (Q04771 whole entry): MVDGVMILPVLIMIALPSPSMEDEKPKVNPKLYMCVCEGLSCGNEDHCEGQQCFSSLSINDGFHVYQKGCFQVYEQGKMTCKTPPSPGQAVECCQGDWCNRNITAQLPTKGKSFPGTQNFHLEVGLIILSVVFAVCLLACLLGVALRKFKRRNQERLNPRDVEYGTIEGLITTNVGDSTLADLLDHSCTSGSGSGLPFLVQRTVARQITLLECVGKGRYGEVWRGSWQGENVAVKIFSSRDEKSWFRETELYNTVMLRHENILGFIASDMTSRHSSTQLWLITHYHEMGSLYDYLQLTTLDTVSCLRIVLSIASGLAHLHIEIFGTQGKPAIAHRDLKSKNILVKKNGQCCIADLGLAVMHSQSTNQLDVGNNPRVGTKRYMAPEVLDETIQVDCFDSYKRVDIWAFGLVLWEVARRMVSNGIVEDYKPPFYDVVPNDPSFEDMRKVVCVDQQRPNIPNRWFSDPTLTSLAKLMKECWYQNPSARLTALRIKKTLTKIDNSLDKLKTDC

[5] = target: G protein-coupled receptor kinase 5 (Homo sapiens, UniProt P34947); test: Navigating the Kinome. Panel member name: GPRK5; assay type: functional
Sequence of G protein-coupled receptor kinase 5 (P34947 whole entry): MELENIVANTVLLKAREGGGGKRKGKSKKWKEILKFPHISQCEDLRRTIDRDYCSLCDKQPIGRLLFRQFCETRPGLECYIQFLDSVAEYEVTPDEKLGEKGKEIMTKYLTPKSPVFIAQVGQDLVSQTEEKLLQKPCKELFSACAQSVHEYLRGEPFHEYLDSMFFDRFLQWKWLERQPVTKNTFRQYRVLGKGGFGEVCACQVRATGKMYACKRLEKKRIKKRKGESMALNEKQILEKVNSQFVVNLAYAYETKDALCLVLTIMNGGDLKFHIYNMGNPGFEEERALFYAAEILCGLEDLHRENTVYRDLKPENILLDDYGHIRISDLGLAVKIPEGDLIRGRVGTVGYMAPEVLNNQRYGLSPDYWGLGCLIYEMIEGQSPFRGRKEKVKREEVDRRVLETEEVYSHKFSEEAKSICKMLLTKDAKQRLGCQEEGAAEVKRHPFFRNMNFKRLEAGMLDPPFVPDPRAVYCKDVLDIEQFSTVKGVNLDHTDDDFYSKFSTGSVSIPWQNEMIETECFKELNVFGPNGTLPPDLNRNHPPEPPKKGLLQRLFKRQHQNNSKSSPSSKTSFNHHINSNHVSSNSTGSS

[6] = target: Ribosomal protein S6 kinase alpha-3 (Homo sapiens, UniProt P51812); assay type: functional;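 note: measured within a kinome-wide profiling panel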
Sequence of Ribosomal protein S6 kinase alpha-3 (P51812 whole entry): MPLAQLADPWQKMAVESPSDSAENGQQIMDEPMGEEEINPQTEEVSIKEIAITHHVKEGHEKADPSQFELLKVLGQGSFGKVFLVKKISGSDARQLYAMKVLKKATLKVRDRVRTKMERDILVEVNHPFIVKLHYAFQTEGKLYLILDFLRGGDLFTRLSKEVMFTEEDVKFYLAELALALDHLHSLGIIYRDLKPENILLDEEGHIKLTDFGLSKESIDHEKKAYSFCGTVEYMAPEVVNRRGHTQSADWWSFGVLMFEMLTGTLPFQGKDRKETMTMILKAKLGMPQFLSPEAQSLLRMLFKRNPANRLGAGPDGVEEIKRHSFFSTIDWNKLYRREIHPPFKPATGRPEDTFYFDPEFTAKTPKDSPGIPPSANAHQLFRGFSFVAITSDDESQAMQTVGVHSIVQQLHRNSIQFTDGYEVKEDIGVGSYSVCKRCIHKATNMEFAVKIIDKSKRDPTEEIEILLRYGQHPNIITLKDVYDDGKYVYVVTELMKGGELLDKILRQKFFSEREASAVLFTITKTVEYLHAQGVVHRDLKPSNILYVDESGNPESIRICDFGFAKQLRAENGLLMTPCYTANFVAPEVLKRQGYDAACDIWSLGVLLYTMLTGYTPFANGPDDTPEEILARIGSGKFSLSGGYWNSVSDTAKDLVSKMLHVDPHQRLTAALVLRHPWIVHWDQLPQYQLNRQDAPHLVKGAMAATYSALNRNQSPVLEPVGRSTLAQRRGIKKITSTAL

[7] = target: Calcium/calmodulin-dependent protein kinase type II subunit alpha (Homo sapiens, UniProt Q9UQM7); test: Navigating the Kinome. Panel member name: CAMK2A; assay type: functional
[8] = target: Mitogen-activated protein kinase 14 (Homo sapiens, UniProt Q16539); assay type: functional;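 note: part of a kinome-wide panel, MAPK14 entry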
Sequence of Mitogen-activated protein kinase 14 (Q16539 whole entry): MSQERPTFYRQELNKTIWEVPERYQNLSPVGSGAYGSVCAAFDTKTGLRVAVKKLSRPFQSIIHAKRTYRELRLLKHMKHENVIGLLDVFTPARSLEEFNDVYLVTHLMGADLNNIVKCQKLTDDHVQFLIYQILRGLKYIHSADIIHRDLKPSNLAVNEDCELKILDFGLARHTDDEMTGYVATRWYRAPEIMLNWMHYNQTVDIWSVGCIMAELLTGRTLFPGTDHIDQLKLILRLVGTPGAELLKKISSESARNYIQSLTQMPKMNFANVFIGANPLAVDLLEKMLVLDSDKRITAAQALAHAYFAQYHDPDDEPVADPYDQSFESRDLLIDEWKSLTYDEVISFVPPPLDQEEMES

[9] = target: Homeodomain-interacting protein kinase 4 (Homo sapiens, UniProt Q8NE63); assay type: functional
[10] = target: MAP kinase-activated protein kinase 3 (Homo sapiens, UniProt Q16644); assay type: functional;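 note: value comes from a kinome-wide profiling panel in which MAPKAPK3 is one of the panel members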
[11] = target: Serine/threonine-protein kinase Nek4 (Homo sapiens, UniProt P51957); assay type: functional
[12] = target: Ribosomal protein S6 kinase alpha-5 (Homo sapiens, UniProt O75582); assay type: functional
Sequence of Ribosomal protein S6 kinase alpha-5 (O75582 whole entry): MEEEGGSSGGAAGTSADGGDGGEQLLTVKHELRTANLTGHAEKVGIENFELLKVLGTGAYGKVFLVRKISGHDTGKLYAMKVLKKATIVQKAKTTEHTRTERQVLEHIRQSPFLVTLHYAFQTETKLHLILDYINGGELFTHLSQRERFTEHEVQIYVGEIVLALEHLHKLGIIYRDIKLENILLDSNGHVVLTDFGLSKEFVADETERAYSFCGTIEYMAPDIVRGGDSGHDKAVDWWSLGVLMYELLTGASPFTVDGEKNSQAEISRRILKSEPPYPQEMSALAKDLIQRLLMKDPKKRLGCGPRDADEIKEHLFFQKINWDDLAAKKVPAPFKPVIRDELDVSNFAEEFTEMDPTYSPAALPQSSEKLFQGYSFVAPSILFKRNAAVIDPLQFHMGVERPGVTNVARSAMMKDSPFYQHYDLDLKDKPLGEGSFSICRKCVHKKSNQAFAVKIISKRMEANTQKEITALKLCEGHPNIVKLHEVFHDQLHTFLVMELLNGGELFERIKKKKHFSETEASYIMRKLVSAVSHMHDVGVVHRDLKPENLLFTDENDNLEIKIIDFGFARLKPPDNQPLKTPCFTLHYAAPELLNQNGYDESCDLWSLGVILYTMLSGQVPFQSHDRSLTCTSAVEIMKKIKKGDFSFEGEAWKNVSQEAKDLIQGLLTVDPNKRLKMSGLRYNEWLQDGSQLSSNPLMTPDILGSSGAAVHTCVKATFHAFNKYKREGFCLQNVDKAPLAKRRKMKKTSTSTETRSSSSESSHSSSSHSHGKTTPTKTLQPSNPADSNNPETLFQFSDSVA

[13] = target: Mast/stem cell growth factor receptor Kit (Homo sapiens, UniProt P10721); assay type: functional;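 note: KIT entry within a kinase panel assay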
LIM domain kinase 1 = LIM domain kinase 1 (Homo sapiens, UniProt P53667); test: Navigating the Kinome. Panel member name: LIMK1; assay type: functional
Sequence of LIM domain kinase 1 (P53667 whole entry, the tested form may be a part): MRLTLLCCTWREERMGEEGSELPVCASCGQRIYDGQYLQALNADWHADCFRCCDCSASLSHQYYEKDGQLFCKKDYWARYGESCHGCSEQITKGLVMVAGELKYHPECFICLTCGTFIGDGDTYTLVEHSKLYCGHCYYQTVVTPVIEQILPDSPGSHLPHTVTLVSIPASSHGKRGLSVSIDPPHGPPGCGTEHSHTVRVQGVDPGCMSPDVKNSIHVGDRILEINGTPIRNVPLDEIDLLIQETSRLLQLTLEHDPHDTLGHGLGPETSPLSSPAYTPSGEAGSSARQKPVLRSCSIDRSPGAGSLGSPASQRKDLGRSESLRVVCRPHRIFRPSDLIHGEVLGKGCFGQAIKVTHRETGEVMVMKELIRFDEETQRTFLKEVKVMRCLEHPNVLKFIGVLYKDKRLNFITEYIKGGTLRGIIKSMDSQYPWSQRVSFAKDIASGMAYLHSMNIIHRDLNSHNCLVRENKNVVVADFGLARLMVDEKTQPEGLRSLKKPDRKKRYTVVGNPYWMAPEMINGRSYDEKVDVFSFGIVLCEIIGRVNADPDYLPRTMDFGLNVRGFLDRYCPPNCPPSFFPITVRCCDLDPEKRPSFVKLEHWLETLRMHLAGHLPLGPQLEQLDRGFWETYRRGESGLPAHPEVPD

[14] = target: Serine/threonine-protein kinase pim-3 (Homo sapiens, UniProt Q86V86); assay type: functional;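 note: value obtained as one member of a broad kinase panel profiling effort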
[15] = target: Maternal embryonic leucine zipper kinase (Homo sapiens, UniProt Q14680); assay type: functional
[16] = target: Megakaryocyte-associated tyrosine-protein kinase (Homo sapiens, UniProt P42679); assay type: functional;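 note: affinity measured as one member of a kinase panel (Navigating the Kinome) against MATK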
Sequence of Megakaryocyte-associated tyrosine-protein kinase (P42679 whole entry): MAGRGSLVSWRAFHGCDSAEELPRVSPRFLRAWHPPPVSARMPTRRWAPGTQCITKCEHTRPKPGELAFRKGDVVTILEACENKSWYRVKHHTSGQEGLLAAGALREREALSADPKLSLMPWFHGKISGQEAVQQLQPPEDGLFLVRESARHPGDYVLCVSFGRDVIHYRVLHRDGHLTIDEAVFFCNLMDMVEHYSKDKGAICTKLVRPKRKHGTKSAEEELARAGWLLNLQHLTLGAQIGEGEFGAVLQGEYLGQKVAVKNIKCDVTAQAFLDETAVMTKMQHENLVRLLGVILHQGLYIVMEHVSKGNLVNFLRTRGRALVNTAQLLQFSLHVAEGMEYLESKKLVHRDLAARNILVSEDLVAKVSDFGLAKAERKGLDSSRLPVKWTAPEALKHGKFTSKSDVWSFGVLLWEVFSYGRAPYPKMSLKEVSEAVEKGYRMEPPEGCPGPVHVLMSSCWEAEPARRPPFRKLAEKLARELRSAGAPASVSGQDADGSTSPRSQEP

[17] = target: Proto-oncogene tyrosine-protein kinase ROS (Homo sapiens, UniProt P08922); assay type: functional;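 note: ROS1 tested as one member of a kinome-wide kinase panel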
[18] = target: MAP kinase-interacting serine/threonine-protein kinase 2 (Homo sapiens, UniProt Q9HBH9); assay type: functional
[19] = target: Inhibitor of nuclear factor kappa-B kinase subunit beta (Homo sapiens, UniProt O14920); assay type: functional
[20] = target: Receptor-type tyrosine-protein kinase FLT3 (Homo sapiens, UniProt P36888); assay type: functional;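 note: FLT3 was tested as one member of a kinome-wide kinase panel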
[21] = target: Calcium/calmodulin-dependent protein kinase type 1 (Homo sapiens, UniProt Q14012); assay type: functional
Sequence of Calcium/calmodulin-dependent protein kinase type 1 (Q14012 whole entry): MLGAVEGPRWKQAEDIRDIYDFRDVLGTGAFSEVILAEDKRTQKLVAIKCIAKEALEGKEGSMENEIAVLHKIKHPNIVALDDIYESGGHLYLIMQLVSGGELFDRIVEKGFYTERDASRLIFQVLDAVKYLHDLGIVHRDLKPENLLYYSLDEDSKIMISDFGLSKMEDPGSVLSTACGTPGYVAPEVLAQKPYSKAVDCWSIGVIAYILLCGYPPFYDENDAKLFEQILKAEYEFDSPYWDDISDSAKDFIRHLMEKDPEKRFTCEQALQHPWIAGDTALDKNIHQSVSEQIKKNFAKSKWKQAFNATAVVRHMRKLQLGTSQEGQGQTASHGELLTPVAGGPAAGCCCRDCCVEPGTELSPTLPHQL

[22] = target: RAC-gamma serine/threonine-protein kinase (Homo sapiens, UniProt Q9Y243); assay type: functional
[23] = cytotoxicity in HEK-293T cells, dose response, cytotoxicity control for TCR NF-kB inhibitor project, luminescence, T-cell screen hits (AID 489026); assay type: functional, cell-based;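 note: cells exposed to compound about 14 hours before the viability readout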
[24] = growth suppression of PTEN-null colon cells, dose response, cell-based, HCT116 PTEN knockout (AID 1047); assay type: functional;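 note: HCT116 colon tumor cells with PTEN knocked out; cells exposed to compound for 60 hours before readout; potency for loss of cell viability measured by luminescence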

With `Cc1cc(C)c[n+](C2=C([N-]S(=O)(=O)c3cccs3)C(=O)c3ccccc3C2=O)c1` the AC50 (INS1) was 3.12 µM (active) and the IC50 [1] was > 50 µM (not active).

With `CCCCCCCCCCC[N+](C)(C)CC/C=C1/c2ccccc2Sc2ccc(Cl)cc21` the EC50 (Protein RecA) was 10.1 µM (active).

In the case of `CCn1c(-c2nonc2N)nc2cncc(C(=O)N3CCC(N)C3)c21` (stereo unspecified), the Ki [2] is reported as > 3.98 µM (inactive), the Ki (Activated CDC42 kinase 1) is reported as > 3.98 µM (inactive) and the Ki [3] is reported as 0.1 µM (active). The Ki [4] was 0.0631 µM (active), the Ki (Activin receptor type-1) was > 3.98 µM (inactive) and the Ki [5] was 3.98 µM (active). For the same compound, the Ki [6] was 0.0398 µM (active), the Ki [7] was > 7.94 µM (inactive) and the Ki [8] was > 3.98 µM (inactive).

With `Cc1[nH]nc2ccc(-c3cncc(OCC(N)Cc4c[nH]c5ccccc45)c3)cc12` (stereo unspecified) the Ki [9] was 0.501 µM (active), the Ki [10] was > 10 µM (inactive) and the Ki [11] was 1 µM (active). For the same compound, the Ki [12] was 0.000794 µM (active), the Ki [13] was > 1.26 µM (inactive) and the Ki (LIM domain kinase 1) was 0.794 µM (active). For the same compound, the Ki [14] was 0.01 µM (active), the Ki [15] was 0.316 µM (active) and the Ki [16] was > 2 µM (inactive). For the same compound, the Ki [17] was 0.794 µM (active), the Ki [18] was 3.98 µM (active) and the Ki [19] was > 3.16 µM (inactive). The Ki [20] was 0.316 µM (active), the Ki [21] was > 7.94 µM (inactive) and the Ki [22] was 0.00631 µM (active).

For `COC(=O)c1ccccc1NC1=C/C(=N\S(=O)(=O)c2cccs2)c2ccccc2C1=O`, the IC50 [23] was 0.98 µM (active), the AC50 (INS1) was 2.19 µM (active) and the EC50 [24] was 7.96 µM (active). For the same compound, the EC50 (Protein RecA) was 0.0208 µM (inconclusive).
